Data from ChEMBL document CHEMBL1158792, “Constituents of the leaves of Macaranga tanarius” (J Nat Prod, 2005).
≈ marks a conversion by molar mass, not a printed value. Calls of active or inactive are those of the source. The calls are words filed in the database; no cut-off is given here.

Key:
NCI-H187 = assay: Cytotoxicity against human NCI-H187 cells; format: functional, cell-based
[1] = system: Radical scavenging activity; assay: Antioxidant activity assessed as DPPH radical scavenging activity by DPPH stable radical assay
[2] = target: T1, Prostaglandin G/H synthase 2 (Mus musculus) (UniProt Q05769); assay: (§1) Inhibition of COX2 in mouse lung fibroblast assessed as PGE2 production by radioimmunoassay
T1 sequence (whole entry): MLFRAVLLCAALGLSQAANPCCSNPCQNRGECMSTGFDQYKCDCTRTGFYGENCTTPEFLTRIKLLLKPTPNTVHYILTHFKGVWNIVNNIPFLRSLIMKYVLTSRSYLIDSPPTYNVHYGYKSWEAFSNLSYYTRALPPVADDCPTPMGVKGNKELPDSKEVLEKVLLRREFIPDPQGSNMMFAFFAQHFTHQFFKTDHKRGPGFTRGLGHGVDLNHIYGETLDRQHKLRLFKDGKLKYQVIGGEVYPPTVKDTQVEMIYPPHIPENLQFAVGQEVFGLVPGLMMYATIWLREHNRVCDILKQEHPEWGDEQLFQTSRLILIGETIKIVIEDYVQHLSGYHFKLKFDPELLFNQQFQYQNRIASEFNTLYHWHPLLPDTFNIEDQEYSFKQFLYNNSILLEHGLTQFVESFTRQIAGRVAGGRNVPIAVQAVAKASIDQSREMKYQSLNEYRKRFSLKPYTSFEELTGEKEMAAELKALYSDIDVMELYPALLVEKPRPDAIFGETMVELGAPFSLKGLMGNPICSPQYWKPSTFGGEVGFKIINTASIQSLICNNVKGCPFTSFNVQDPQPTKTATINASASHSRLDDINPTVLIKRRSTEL

BC = assay: (§2) Cytotoxicity against human BC cells; format: functional, cell-based
KB = assay: Cytotoxicity against human KB cells; format: functional, cell-based
[3] = target: T2, Prostaglandin G/H synthase 2 (Mus musculus, UniProt Q05769); assay: as §1
T2 sequence (Q05769 whole entry): T1 sequence (whole entry)

Vero = assay: Cytotoxicity against african green monkey Vero cells; format: cell-based; settings: Chlorocebus sabaeus
[4] = as §2; format: functional, cell-based

Row | Structure (SMILES) | IC50 [1] [µM] | Activity [2] | IC50 [3] [µM] | Activity (NCI-H187) | Activity (BC) | Activity (KB) | IC50 (Vero) [µg/mL] | IC50 [4] [µg/mL] | IC50 (NCI-H187) [µg/mL] | IC50 (KB) [µg/mL]
1 | COc1cc2c(c(O)c1CC=C(C)C)C(=O)C[C@@H](c1ccc(OC)c(OC)c1C/C=C(\C)CCC=C(C)C)O2 | 599 | inactive | – | inactive | inactive | inactive | – | – | – | –
2 | CC1=CC(=O)CC(C)(C)[C@@]1(O)CC[C@@H](C)O | – | inactive | – | inactive | inactive | inactive | – | – | – | –
3 | Cc1cc(C(C)(C)C)c(O)c(C(C)(C)C)c1 [BUTYLATED HYDROXYTOLUENE] | 30 | – | – | – | – | – | – | – | – | –
4 | COc1cc(O)c2c(c1)O[C@H](c1ccc(OC)c(OC)c1C/C=C(\C)CCC=C(C)C)CC2=O | – | inactive | – | inactive | inactive | inactive | – | – | – | –
5 | COc1ccc([C@@H]2CC(=O)c3c(cc(OC)c(C/C=C(\C)CCC=C(C)C)c3O)O2)cc1OC | – | inactive | – | inactive | inactive | inactive | – | – | – | –
6 | CC1=CC(=O)CC(C)(C)[C@@]1(O)/C=C/[C@@H](C)O | – | inactive | – | inactive | inactive | inactive | – | – | – | –

Second part, led by results:

Row | IC50 [1] [µM] | Activity [2] | IC50 [3] [µM] | Structure (SMILES) | Activity (NCI-H187) | Activity (BC) | Activity (KB) | IC50 (Vero) [µg/mL] | IC50 [4] [µg/mL] | IC50 (NCI-H187) [µg/mL] | IC50 (KB) [µg/mL]
7 | 13 | – | 8.72 | CC(C)=CCC/C(C)=C/Cc1c([C@@H]2CC(=O)c3c(O)cc(O)cc3O2)ccc(O)c1O [NYMPHAEOL B] | inactive | inactive | inactive | – | – | – | –
8 | 413 | inactive | – | COc1ccc([C@@H]2CC(=O)c3c(cc(OC)c(CC=C(C)C)c3O)O2)c(C/C=C(\C)CCC=C(C)C)c1O | inactive | inactive | inactive | – | – | – | –
9 | – | inactive | – | CC(C)=CCCC1(C)C=Cc2c([C@@H]3CC(=O)c4c(cc(O)c(CC=C(C)C)c4O)O3)ccc(O)c2O1 (some centres undefined) | inactive | inactive | inactive | – | – | – | –
10 | 33 | inactive | – | C=C(C)C(O)Cc1c(O)cc2c(c1O)C(=O)C[C@@H](c1ccc(O)c(O)c1C/C=C(\C)CCC=C(C)C)O2 (some centres undefined) [TANARIFLAVANONE C] | inactive | inactive | inactive | – | – | – | –
11 | 20 | – | – | C=C(C)C(O)CC/C(C)=C/Cc1c(O)cc2c(c1O)C(=O)C[C@@H](c1ccc(O)c(O)c1)O2 (some centres undefined) [TANARIFLAVANONE D] | inactive | – | – | 19.5 (≈ 44.3 µM) | 6.5 (≈ 14.8 µM) | – | –
12 | – | inactive | – | COc1cc(O)c2c(c1)O[C@H](c1ccc(OC)c(O)c1C/C=C(\C)CCC=C(C)C)CC2=O | inactive | inactive | inactive | – | – | – | –
13 | 15 | inactive | – | CC(C)=CCC/C(C)=C/Cc1c([C@@H]2CC(=O)c3c(cc(O)c(CC=C(C)C)c3O)O2)ccc(O)c1O [NYMPHAEOL C] | inactive | inactive | inactive | – | – | – | –
14 | 14 | – | – | CC(C)=CCC/C(C)=C/Cc1c(O)cc2c(c1O)C(=O)C[C@@H](c1ccc(O)c(O)c1)O2 [NYMPHAEOL A] | – | – | – | 3.8 (≈ 8.95 µM) | 2.7 (≈ 6.36 µM) | 1.5 (≈ 3.53 µM) | 4.6 (≈ 10.8 µM)
